Data reported in ChEMBL document CHEMBL1250518, “Nonsteroidal dissociated glucocorticoid agonists containing azaindoles as steroid A-ring mimetics” (J Med Chem, 2010).

What was measured:
[1] = molecular target: T1, Mineralocorticoid receptor (Homo sapiens, UniProt P08235); experiment: Binding affinity to mineralocorticoid receptor expressed in baculovirus-infected insect cells using tetramethylrhodamine labeled Dexamethasone by fluorescence polarization microplate assay
T1 sequence (P08235 whole entry): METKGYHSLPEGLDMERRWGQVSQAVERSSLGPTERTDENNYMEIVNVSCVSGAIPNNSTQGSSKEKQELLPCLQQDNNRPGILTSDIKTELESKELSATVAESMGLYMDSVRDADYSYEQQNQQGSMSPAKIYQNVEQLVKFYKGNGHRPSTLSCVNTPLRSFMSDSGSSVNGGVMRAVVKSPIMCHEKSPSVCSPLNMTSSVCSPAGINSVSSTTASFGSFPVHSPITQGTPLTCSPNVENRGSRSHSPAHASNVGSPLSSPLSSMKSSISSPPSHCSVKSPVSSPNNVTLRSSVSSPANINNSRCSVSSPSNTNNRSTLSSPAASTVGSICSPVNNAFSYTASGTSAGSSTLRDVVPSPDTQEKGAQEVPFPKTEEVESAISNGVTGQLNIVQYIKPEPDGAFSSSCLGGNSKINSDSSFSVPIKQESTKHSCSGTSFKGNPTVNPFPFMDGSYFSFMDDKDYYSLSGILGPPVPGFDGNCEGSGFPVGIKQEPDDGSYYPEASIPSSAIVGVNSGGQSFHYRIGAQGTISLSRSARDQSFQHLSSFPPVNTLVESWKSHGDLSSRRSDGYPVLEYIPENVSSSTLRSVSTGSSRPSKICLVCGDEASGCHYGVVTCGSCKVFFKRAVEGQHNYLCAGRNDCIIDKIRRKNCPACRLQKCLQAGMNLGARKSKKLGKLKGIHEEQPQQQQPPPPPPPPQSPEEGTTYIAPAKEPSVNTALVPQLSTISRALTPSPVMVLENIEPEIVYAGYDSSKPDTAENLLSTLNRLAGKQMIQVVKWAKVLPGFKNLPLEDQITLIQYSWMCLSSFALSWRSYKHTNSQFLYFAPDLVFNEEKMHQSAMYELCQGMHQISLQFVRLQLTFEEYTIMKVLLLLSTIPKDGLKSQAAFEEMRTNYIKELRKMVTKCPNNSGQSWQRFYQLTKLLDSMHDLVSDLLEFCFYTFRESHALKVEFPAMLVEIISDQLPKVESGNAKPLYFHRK

[2] = molecular target: T2, Glucocorticoid receptor (Homo sapiens, UniProt P04150); experiment: Transrepression activity at glucocorticoid receptor in HFF assessed as inhibition of IL-1-induced IL-6 production after 18 to 24 hrs by ELISA; format: cell-based
T2 sequence (P04150 whole entry): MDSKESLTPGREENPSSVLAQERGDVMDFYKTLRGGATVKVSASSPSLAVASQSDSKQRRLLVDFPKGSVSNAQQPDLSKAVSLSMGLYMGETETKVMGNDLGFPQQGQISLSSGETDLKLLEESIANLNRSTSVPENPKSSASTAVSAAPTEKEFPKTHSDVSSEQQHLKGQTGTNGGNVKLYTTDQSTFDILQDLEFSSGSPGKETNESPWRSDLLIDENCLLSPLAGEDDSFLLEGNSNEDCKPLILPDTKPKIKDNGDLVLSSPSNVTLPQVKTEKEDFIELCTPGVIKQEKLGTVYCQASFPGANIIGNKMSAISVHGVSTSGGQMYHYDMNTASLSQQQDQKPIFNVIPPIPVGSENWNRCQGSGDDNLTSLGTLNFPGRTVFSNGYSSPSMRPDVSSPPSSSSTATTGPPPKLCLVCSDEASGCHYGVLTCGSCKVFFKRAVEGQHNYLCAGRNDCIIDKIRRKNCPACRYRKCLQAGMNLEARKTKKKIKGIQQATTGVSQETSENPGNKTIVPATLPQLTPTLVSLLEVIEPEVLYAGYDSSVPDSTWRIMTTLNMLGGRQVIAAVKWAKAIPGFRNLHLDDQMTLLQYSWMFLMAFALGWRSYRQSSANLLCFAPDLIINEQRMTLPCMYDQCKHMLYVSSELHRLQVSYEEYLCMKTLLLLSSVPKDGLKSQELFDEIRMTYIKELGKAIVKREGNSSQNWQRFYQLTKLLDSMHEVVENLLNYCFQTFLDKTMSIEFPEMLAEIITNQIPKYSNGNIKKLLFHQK

[3] = molecular target: T2, Glucocorticoid receptor; experiment: Transactivation activity at glucocorticoid receptor in human HeLa cells transfected with luciferase gene linked to MMTV promoter by luciferase assay; format: cell-based
[4] = Volume of distribution at steady state in Sprague-Dawley rat at 5 mg/kg, iv; format: ADME, organism-based; set-up: dose 5 mg/kg, route intravenous; details: in vivo, read-out: Vdss
[5] = system: Mus musculus; experiment: Antiinflammatory effect in collagen and Freund's complete adjuvant-induced B10.RIII mouse arthritis model assessed as inhibition of disease progression at 30 mg/kg, po qd for 5 weeks; format: functional; details: 840 h
[6] = system: Mus musculus; experiment: Toxicity in collagen and Freund's complete adjuvant-induced B10.RIII mouse arthritis model assessed as increase of body fat content at 30 mg/kg, po qd for 5 weeks; format: organism-based; set-up: dose 30 mg/kg, route oral; details: in vivo, 840 h
[7] = system: Mus musculus; experiment: Toxicity in collagen and Freund's complete adjuvant-induced B10.RIII mouse arthritis model assessed as increase of serum insulin level at 30 mg/kg, po qd for 5 weeks; format: organism-based; set-up: dose 30 mg/kg, route oral; details: in vivo, 840 h
[8] = system: Mus musculus; experiment: Toxicity in B10.RIII mouse assessed as increase of triglyceride level at 30 mg/kg, po qd for 5 weeks; format: organism-based; set-up: dose 30 mg/kg, route oral; details: in vivo, 840 h

Structure (SMILES): CC(C)(C[C@@](O)(Cc1cc2ccncc2[nH]1)C(F)(F)F)c1cc(F)ccc1O
- IC50 [1]: 210 nM
- IC50 [2]: 3.3 nM
- IC50 [3]: 80 nM
- Vd [4]: 7.6 L/kg
- inhibition in vivo at 30 mg/kg [5]: 92%
- Activity [6]: Toxic
- Activity [7]: Toxic
- Activity [8]: Toxic
